From the supplement of paper PMC10307832

How the values were obtained:
Assay in all cases: relative viability (nuclei count vs DMSO), 5 days (fraction); higher = more cells survive
Cediranib + AZD7762 = compound: COc1cc2c(Oc3ccc4[nH]c(C)cc4c3F)ncnc2cc1OCCCN1CCCC1 [Cediranib] + NC(=O)Nc1cc(-c2cccc(F)c2)sc1C(=O)N[C@H]1CCCNC1 [AZD7762] (partner 0.2 µM)
Outline: (§1)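 Medians of duplicate plates are given as relative viability. That measure is the nuclei count in treated wells divided by the count in vehicle wells. Counts were taken on 4× images of lung cancer cell lines in 1536-well plates, 5 days after pin-tool dosing the day after seeding with one drug alone or a fixed anchor-drug dose plus five library-drug doses (not always all listed) in √10 steps.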

Decitabine + Linsitinib = compound: Nc1ncn([C@H]2C[C@H](O)[C@@H](CO)O2)c(=O)n1 [Decitabine] + C[C@]1(O)C[C@@H](c2nc(-c3ccc4ccc(-c5ccccc5)nc4c3)c3c(N)nccn32)C1 [Linsitinib] (partner 1 µM)
Outline: as §1

Decitabine + AZD7762 = compound: Nc1ncn([C@H]2C[C@H](O)[C@@H](CO)O2)c(=O)n1 [Decitabine] + NC(=O)Nc1cc(-c2cccc(F)c2)sc1C(=O)N[C@H]1CCCNC1 [AZD7762] (partner 0.2 µM)
Outline: as §1

Halofuginone + Dasatinib = compound: O=C(C[C@H]1NCCC[C@@H]1O)Cn1cnc2cc(Br)c(Cl)cc2c1=O (racemic) [Halofuginone] + Cc1nc(Nc2ncc(C(=O)Nc3c(C)cccc3Cl)s2)cc(N2CCN(CCO)CC2)n1 [Dasatinib] (partner 0.075 µM)
Outline: as §1

| Cell Line | relative viability (Cediranib + AZD7762; first compound 0.04 µM) | relative viability (Cediranib + AZD7762; first compound 0.1265 µM) | relative viability (Cediranib + AZD7762; first compound 0.4 µM) | relative viability (Cediranib + AZD7762; first compound 1.265 µM) | relative viability (Cediranib + AZD7762; first compound 4 µM) | relative viability (Decitabine + Linsitinib; first compound 0.04 µM) | relative viability (Decitabine + Linsitinib; first compound 0.1265 µM) | relative viability (Decitabine + Linsitinib; first compound 0.4 µM) | relative viability (Decitabine + Linsitinib; first compound 1.265 µM) | relative viability (Decitabine + Linsitinib; first compound 4 µM) | relative viability (Decitabine + AZD7762; first compound 0.04 µM) | relative viability (Decitabine + AZD7762; first compound 0.1265 µM) | relative viability (Decitabine + AZD7762; first compound 0.4 µM) | relative viability (Decitabine + AZD7762; first compound 1.265 µM) | relative viability (Decitabine + AZD7762; first compound 4 µM) | relative viability (Halofuginone + Dasatinib; first compound 0.001 µM) | relative viability (Halofuginone + Dasatinib; first compound 0.003162 µM) | relative viability (Halofuginone + Dasatinib; first compound 0.01 µM) | relative viability (Halofuginone + Dasatinib; first compound 0.03162 µM) | relative viability (Halofuginone + Dasatinib; first compound 0.1 µM) |
| --- | --- | --- | --- | --- | --- | --- | --- | --- | --- | --- | --- | --- | --- | --- | --- | --- | --- | --- | --- | --- |
| HOP-62 | 0.612 | 0.397 | 0.263 | 0.446 | 0.712 | 0.617 | 0.307 | 0.159 | 0.138 | 1.05 | 0.361 | 0.297 | 0.143 | 0.117 | 0.147 | 0.641 | 0.75 | 0.737 | 0.545 | 0.369 |
| LC-2-ad | 0.92 | 1.02 | 0.759 | 0.88 | 0.85 | 0.732 | 0.746 | 0.51 | 0.497 | 0.378 | 0.769 | 0.846 | 0.925 | 0.491 | 0.63 | 0.711 | 0.517 | 0.511 | 0.565 | 0.209 |
| LCLC-97TM1 | 0.418 | – | 0.329 | 0.244 | 0.287 | 0.183 | 0.199 | 0.166 | 0.116 | 0.213 | 0.0916 | 0.108 | 0.0741 | 0.102 | 0.0907 | 0.78 | 0.902 | 0.775 | 0.826 | 0.775 |
| LCLC-103H | 0.829 | 1.01 | 0.724 | 0.826 | 0.858 | 1.06 | 1.13 | 1.12 | 0.882 | 0.888 | 0.746 | 0.728 | 0.649 | 0.639 | 0.551 | 0.551 | 0.423 | 0.472 | 0.48 | 0.388 |
| LK-2 | 0.463 | 0.275 | 0.327 | 0.284 | 0.319 | 0.462 | 0.637 | 0.509 | 0.502 | 0.387 | 0.299 | 0.37 | 0.288 | 0.256 | 0.14 | 0.318 | 0.329 | 0.328 | 0.251 | 0.26 |
| LOU-NH91 | 0.803 | 0.86 | 0.693 | 0.697 | 0.803 | 0.575 | 0.839 | 0.779 | 0.693 | 0.735 | 0.735 | 0.847 | 0.732 | 0.72 | 0.73 | 0.632 | 0.578 | 0.555 | 0.582 | 0.498 |
| LU99A | 0.457 | – | 0.338 | 0.287 | 0.41 | 0.45 | 0.584 | 0.603 | 0.442 | 0.374 | 0.373 | 0.376 | 0.335 | 0.32 | 0.29 | 0.743 | 0.584 | 0.453 | 0.53 | 0.392 |
| LXF-289 | 1.12 | – | 1.02 | 0.971 | 1.11 | 0.893 | 0.674 | 0.566 | 0.372 | 0.395 | 0.82 | 0.756 | 0.47 | 0.316 | 0.332 | 0.318 | 0.266 | 0.267 | 0.222 | 0.198 |
| NCI-H23 | 0.222 | 0.383 | 0.246 | 0.331 | 0.286 | 0.571 | 0.381 | 0.252 | 0.215 | 0.229 | 0.196 | 0.271 | 0.154 | 0.131 | 0.162 | 0.862 | 0.86 | 0.891 | 0.741 | 0.472 |
| NCI-H322M | 0.621 | 0.671 | 0.495 | 0.424 | 0.565 | 0.773 | 0.844 | 0.737 | 0.497 | 0.472 | 0.546 | 0.619 | 0.478 | 0.445 | 0.501 | 0.27 | 0.26 | 0.251 | 0.208 | 0.212 |
| NCI-H358 | 0.613 | 0.496 | 0.478 | 0.596 | 0.502 | 0.87 | 0.822 | 0.521 | 0.272 | 0.293 | 0.554 | 0.527 | 0.413 | 0.272 | 0.328 | 0.175 | 0.188 | 0.115 | 0.0901 | 0.0916 |
| NCI-H441 | 1.26 | 1.25 | 1.07 | 1.16 | 1.18 | 0.282 | 0.407 | 0.272 | 0.19 | 0.165 | 0.422 | 0.428 | 0.287 | 0.259 | 0.254 | 0.654 | 0.576 | 0.668 | 0.459 | 0.237 |
| NCI-H460 | 0.727 | 0.679 | 0.584 | 0.574 | 0.616 | 0.651 | 0.855 | 0.669 | 0.168 | 0.114 | 0.576 | 0.593 | 0.361 | 0.134 | 0.105 | 0.571 | 0.542 | 0.445 | 0.349 | 0.157 |
| NCI-H596 | 1.21 | 1.31 | 0.853 | 0.969 | 1.2 | 1.07 | 0.983 | 0.885 | 0.826 | 0.839 | 1.07 | 1.14 | 0.699 | 0.913 | 0.881 | 0.538 | 0.533 | 0.598 | 0.559 | 0.366 |
